# Results reported in patent US9850273B2, “Combination of estrogens plus antiprogestins with significant partial agonistic effect as an effective treatment of menopausal symptoms and for prevention of the occurrence of breast cancer” (Evestra, Inc., priority 2014, dated 2017).
# Like-named read-outs stand apart in the source and are kept apart here.
# How the values were obtained:
# [1] = tested on: estradiol-primed immature female rabbits; experiment: McPhail and anti-McPhail tests in rabbits; type: in vivo, rabbit; settings: for antiprogestational activity (anti-McPhail test): immature female rabbit
# Description: The McPhail test in the immature female rabbit is a well-established model to test progestatational and antiprogestational activity [McPhail 1934).
# guinea pig = experiment: Guinea pig model (ovulation inhibition, uterine weight, vagina, ovary, classification); type: in vivo; settings: for Classification: guinea pig model; for ER-/PR balance vagina. / Ovary (CL): at max. dose (10.mg/day s.c.); for Ovary (CL): CL = corpora lutea
# progesterone receptor [2] = biological target: T1, progesterone receptor (Homo sapiens, UniProt P06401); experiment: PR transactivation assay, antagonistic activity (PR luciferase reporter); type: cell-based; settings: for Ratio of IC50's: PR agonism / PR antagonism
# T1 sequence (P06401 165-933 limits assumed): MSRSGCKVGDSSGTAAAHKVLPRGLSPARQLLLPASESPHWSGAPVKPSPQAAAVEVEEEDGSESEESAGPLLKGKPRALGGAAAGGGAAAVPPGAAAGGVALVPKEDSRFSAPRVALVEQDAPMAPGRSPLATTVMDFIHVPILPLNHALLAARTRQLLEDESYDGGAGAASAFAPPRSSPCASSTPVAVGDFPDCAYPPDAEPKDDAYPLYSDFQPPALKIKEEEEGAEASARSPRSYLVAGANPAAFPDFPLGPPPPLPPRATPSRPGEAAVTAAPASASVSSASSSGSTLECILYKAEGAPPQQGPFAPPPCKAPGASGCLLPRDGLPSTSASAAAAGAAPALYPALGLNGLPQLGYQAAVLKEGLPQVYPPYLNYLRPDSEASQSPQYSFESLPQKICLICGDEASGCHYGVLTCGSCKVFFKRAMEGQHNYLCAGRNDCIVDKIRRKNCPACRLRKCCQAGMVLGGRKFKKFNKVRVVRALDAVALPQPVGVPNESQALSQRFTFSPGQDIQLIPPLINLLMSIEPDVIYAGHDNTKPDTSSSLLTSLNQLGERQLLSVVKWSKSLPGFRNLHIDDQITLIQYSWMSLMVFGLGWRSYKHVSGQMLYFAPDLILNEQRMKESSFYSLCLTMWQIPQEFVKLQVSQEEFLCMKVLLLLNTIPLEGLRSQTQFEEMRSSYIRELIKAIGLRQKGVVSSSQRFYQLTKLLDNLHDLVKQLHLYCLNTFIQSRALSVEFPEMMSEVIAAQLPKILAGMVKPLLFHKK
# Procedure: (§1) Transactivation Assay for Progesterone Agonist and Antagonistic Activity (See Table 1).
# (§2) Experimental: PR transactivation studies was carried out in human breast cancer (T47D) cells, grown in RPMI medium without phenol red and 5% charcoal stripped fetal bovine serum, transiently transfected with PR luciferase reporter (CCS-6043L signal reporter assay kit, Qiagen). The cells were stimulated R5020 as PR agonist and treated in the presence or absence of the tested compounds for 24 hours.
# progesterone receptor [3] = biological target: T2, progesterone receptor (Homo sapiens, UniProt P06401); experiment: PR transactivation assay, agonistic activity (PR luciferase reporter); type: cell-based; settings: T47D cells
# T2 sequence (P06401 679-933 limits assumed): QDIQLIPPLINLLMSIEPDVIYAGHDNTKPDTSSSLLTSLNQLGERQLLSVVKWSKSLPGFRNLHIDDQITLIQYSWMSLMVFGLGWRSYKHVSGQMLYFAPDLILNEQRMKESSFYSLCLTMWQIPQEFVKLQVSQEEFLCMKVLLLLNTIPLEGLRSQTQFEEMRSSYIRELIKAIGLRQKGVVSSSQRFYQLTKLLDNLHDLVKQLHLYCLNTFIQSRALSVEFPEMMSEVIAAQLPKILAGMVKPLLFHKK
# Procedure: as §1
# as §2, with “hours. The effect was calculated using dual luciferase assay kit (Promega, WI)) based on RU486 as full antagonist and R5020 as agonist for progesterone receptor.” for “hours.”
# [4] = estradiol-primed immature female rabbit
# [5] = T47D cells, stimulant R5020, read-out: IC50 Average of 2 expts
# [6] = Table 2 summary, read-out: PR antagonism (IC50)
# [7] = stimulant R5020, read-out: EC50
Structure (SMILES),"progestational activity (McPhail test) [1, 4]",antiprogestational activity (anti-McPhail test) [1],Ovulation Inhibition (guinea pig; guinea pig),Classification (guinea pig),Uterine Weight at max. dose (10.mg/day s.c.) (guinea pig; guinea pig),ER-/PR balance vagina. (guinea pig; guinea pig),Ovary (CL) (guinea pig; guinea pig),Ratio of IC50's (progesterone receptor [2]),"Antagonist rel to RU486 (%) (progesterone receptor [2]; T47D cells, stimulant R5020)",IC50 (progesterone receptor [2]; [5]),IC50 (progesterone receptor [2]; [6]),Agonist rel to R5020 (%) (progesterone receptor [3]),EC50 (progesterone receptor [3]; [7]),progestational activity relative to CDB 2914 ([1]; assumed from McPhail test),ER-/PR balance vagina.: dose at which the dominance is seen (guinea pig; guinea pig),progestational activity (McPhail test) ([1]; dose of 3 mg/animal/day),"EC50 (progesterone receptor [3]; control compound R5020, read-out: Control EC50)"
"COCC(=O)[C@@]1(OC(C)=O)CC[C@H]2[C@@H]3CCC4=CC(=O)CCC4=C3[C@@H](c3ccc(N(C)C)cc3)C[C@@]21C [CDB-4124, reference compound]",did not exhibit any progestational activity,higher antiprogestational activity than RU 486,≦10.0 mg,PR-antagonist,1.41,ER-domin.,deg. &,30.7,300%,0.7 nM,0.7 nM,1.4%,25 nM,–,–,–,–
"COC[C@]1(OC)CC[C@H]2[C@@H]3CCC4=CC(=O)CCC4=C3[C@@H](c3ccc(/C=N/O)cc3)C[C@@]21C [ASOPRISNIL, reference compound]",–,–,–,–,–,–,–,–,–,0.62 nM,0.62 nM,–,4.9 nM,–,–,–,–
C[C@]12C[C@H](c3ccc(-c4cccnc4)cc3)C3=C4CCC(=O)C=C4CCC3C1CCC21OCCC1=C(F)F (stereo partly drawn) [EC-312],active both as a progestin agonist and antagonist,active both as a progestin agonist and antagonist,–,mesoprogestin,1.03,PR-domin.,degenerated,81.7,160%,0.625 nM,0.63 nM,0.73%,51.5 nM,more than ten-fold higher,≧0.1 mg,–,–
C=C1CCOC12CCC1C3CCC4=CC(=O)CCC4=C3[C@@H](c3ccc(-n4ccnc4)cc3)C[C@@]12C (stereo partly drawn) [EC336],–,–,–,–,–,–,–,1.0,21.8%,5 nM,5 nM,7%,5 nM,–,–,–,–
"CC[C@@H]1CC2C3CCC4=CC(=O)CCC4=C3[C@@H](c3ccc(-c4ccoc4)cc3)C[C@]2(C)C1C(C)=O (stereo partly drawn) [EC343, 11β-{4′-[3′-furanyl)phenyl}-16α-ethyl-19-norpregna-4,9-diene-3,20-dione]",–,–,–,–,–,–,–,2.2,57.1%,2.1 nM,2.1 nM,6.4%,4.75 nM,–,–,–,–
"CC(=O)O[C@]1(C(C)=O)CC[C@H]2[C@@H]3CCC4=CC(=O)CCC4=C3[C@@H](c3ccc(N(C)C)cc3)C[C@@]21C [CDB-2914, reference compound]",–,–,–,blunted PR-,(1.01),ER-domin.,degenerated,38.4,120%,0.65 nM,0.65 nM,1.5%,21.5 nM,–,–,didn't show any activity at all,–
"CC[C@@H]1CC2C3CCC4=CC(=O)CCC4=C3[C@@H](c3ccc(-n4ccnc4)cc3)C[C@]2(C)C1C(C)=O (stereo partly drawn) [EC346, 11β-{4′-[1′ imidazolyl)phenyl}-16α-ethyl-19-norpregna-4,9-diene-3,20-dione]",–,–,–,mesoprogestin,0.8,PR-domin,degenerated,–,378%,0.3 nM,–,0.32%,–,–,–,–,–
"CCC(=O)[C@@]1(C)CC[C@H]2[C@@H]3CCC4=CC(=O)CCC4=C3CC[C@@]21C [R5020, reference compound]",–,–,–,–,–,–,–,–,–,–,–,–,–,–,–,–,0.35 nM
"CC#C[C@]1(O)CC[C@H]2[C@@H]3CCC4=CC(=O)CCC4=C3[C@@H](c3ccc(N(C)C)cc3)C[C@@]21C [RU-486, reference compound]",–,–,–,–,(1.26),–,–,–,–,–,–,–,–,–,≧1.0 mg,–,–
"C[C@]12C[C@H](c3ccc(S(C)(=O)=O)cc3)C3=C4CCC(=O)C=C4CC[C@H]3[C@@H]1CC[C@@]2(O)C(F)(F)C(F)(F)F [BAY 1002670, reference compound]",–,–,–,–,–,–,–,28.7,342.9%,0.325 nM,0.33 nM,3.9%,9.5 nM,–,–,–,–
C=C[C@@H]1CC2C3CCC4=CC(=O)CCC4=C3[C@@H](c3ccc(-n4ccnc4)cc3)C[C@]2(C)C1C(C)=O (stereo partly drawn) [EC347],–,–,–,mesoprogestin,1.01,PR-domin,degenerated,3.5,120%,0.95 nM,0.95 nM,9.7%,3.4 nM,–,–,–,–
"C=C[C@@H]1CC2C3CCC4=CC(=O)CCC4=C3[C@@H](c3ccc(-c4cccnc4)cc3)C[C@]2(C)C1C(C)=O (stereo partly drawn) [EC344, 11β-{4′-[3′-pyridinyl)phenyl}-16α-ethenyl-19-norpregna-4,9-diene-3,20-dione]",–,–,–,–,–,–,–,–,324%,0.35 nM,–,0.32%,–,–,–,–,–
"CC[C@@H]1CC2C3CCC4=CC(=O)CCC4=C3[C@@H](c3ccc(-c4cccnc4)cc3)C[C@]2(C)C1C(C)=O (stereo partly drawn) [EC-342, 11β-{4′-[3′-pyridinyl)phenyl}-16α-ethyl-19-norpregna-4,9-diene-3,20-dione]",–,–,–,mesoprogestin,0.86,PR-domin,degenerated,5.7,120%,0.95 nM,0.95 nM,7%,5.15 nM,–,–,–,–
C[C@]12C[C@H](c3ccc(-n4ccnc4)cc3)C3=C4CCC(=O)C=C4CCC3C1CC[C@@]2(O)C(F)(F)C(F)(F)F (stereo partly drawn) [EC-317],–,–,–,–,–,–,–,217.3,255.3%,0.46 nM,0.46 nM,0.35%,–,–,–,–,–
"CC(=O)C1[C@H](C)CC2C3CCC4=CC(=O)CCC4=C3[C@@H](c3ccc(-c4cccnc4)cc3)C[C@@]21C (stereo partly drawn) [EC348, 11β-{4′-[3′-pyridinyl)phenyl}-16α-methyl-19-norpregna-4,9-diene-3,20-dione]",–,–,–,mesoprogestin,1.01,PR-domin,degenerated,11.8,292.7%,0.39 nM,0.39 nM,7.0%,4.61 nM,–,–,–,–
"C=C[C@@H]1CC2C3CCC4=CC(=O)CCC4=C3[C@@H](c3ccc(-c4ccoc4)cc3)C[C@]2(C)C1C(C)=O (stereo partly drawn) [EC345, 11β-{4′-[3′-furanyl)phenyl}-16α-ethenyl-19-norpregna-4,9-diene-3,20-dione]",–,–,–,–,–,–,–,–,120%,1 nM,–,0.65%,49 nM,–,–,–,–
